Laboratory results published in PubChem BioAssay AID1963980 (Molecular Pharmacology Branch, DTP, NCI, 2024).

Tested on: 475296-252-R-J1-PDC spheroid viability
Experiment: Anticancer human tumor 475296-252-R-J1-PDC patient-derived rectal carcinoma cell line growth inhibition [PI3K]
Conditions: spheroids with HUVEC and MSC; for IC50: curve of first compound; for viability, T/C: stronger effect = lower value; active = viability on the fitted dose curve at most 10% of control; inactive = the rest
Outline: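 Complex 3D spheroids (cancer cells + endothelial HUVEC + mesenchymal stem cells); drug pairs of targeted agent x inavolisib/alpelisib/duvelisib/copanlisib; half-log series from ~Cmax, max 10 microM if Cmax unknown; endpoint viability.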
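Note: spheroids exposed to agents for seven days before readout.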

C=CC(=O)N1CCN(c2nc(=O)n(-c3c(C)ccnc3C(C)C)c3nc(-c4c(O)cccc4F)c(F)cc23)C(C)C1 (centres undefined) + CC(Nc1ccc2c(c1)OCCn1cc(N3C(=O)OCC3C(F)F)nc1-2)C(N)=O
> 10000 nM: IC50 (second compound 0.00316 µM) | IC50 (second compound 0.01 µM) | IC50 (second compound 0.0316 µM) | IC50 (second compound 0.1 µM) | IC50 (second compound 0.316 µM) | IC50 (second compound 1 µM)
inactive: viability, T/C (second compound 0.00316 µM, first compound 0.0316 µM) 83.8% | viability, T/C (second compound 0.00316 µM, first compound 0.1 µM) 89.9% | viability, T/C (second compound 0.00316 µM, first compound 0.316 µM) 89.4% | viability, T/C (second compound 0.00316 µM, first compound 1 µM) 92.5% | viability, T/C (second compound 0.00316 µM, first compound 3.16 µM) 102% | viability, T/C (second compound 0.00316 µM, first compound 10 µM) 110% | viability, T/C (second compound 0.01 µM, first compound 0.0316 µM) 90.2% | viability, T/C (second compound 0.01 µM, first compound 0.1 µM) 84.9% | viability, T/C (second compound 0.01 µM, first compound 0.316 µM) 101% | viability, T/C (second compound 0.01 µM, first compound 1 µM) 102% | viability, T/C (second compound 0.01 µM, first compound 3.16 µM) 102% | viability, T/C (second compound 0.01 µM, first compound 10 µM) 97.8% | viability, T/C (second compound 0.0316 µM, first compound 0.0316 µM) 88.3% | viability, T/C (second compound 0.0316 µM, first compound 0.1 µM) 97.2% | viability, T/C (second compound 0.0316 µM, first compound 0.316 µM) 91.2% | viability, T/C (second compound 0.0316 µM, first compound 1 µM) 90.2% | viability, T/C (second compound 0.0316 µM, first compound 3.16 µM) 99% | viability, T/C (second compound 0.0316 µM, first compound 10 µM) 96.3% | viability, T/C (second compound 0.1 µM, first compound 0.0316 µM) 83.7% | viability, T/C (second compound 0.1 µM, first compound 0.1 µM) 92.2% | viability, T/C (second compound 0.1 µM, first compound 0.316 µM) 96.5% | viability, T/C (second compound 0.1 µM, first compound 1 µM) 103% | viability, T/C (second compound 0.1 µM, first compound 3.16 µM) 94% | viability, T/C (second compound 0.1 µM, first compound 10 µM) 98.6% | viability, T/C (second compound 0.316 µM, first compound 0.0316 µM) 77.5% | viability, T/C (second compound 0.316 µM, first compound 0.1 µM) 90.8% | viability, T/C (second compound 0.316 µM, first compound 0.316 µM) 88% | viability, T/C (second compound 0.316 µM, first compound 1 µM) 86.9% | viability, T/C (second compound 0.316 µM, first compound 3.16 µM) 83.4% | viability, T/C (second compound 0.316 µM, first compound 10 µM) 86.2% | viability, T/C (second compound 1 µM, first compound 0.0316 µM) 82.7% | viability, T/C (second compound 1 µM, first compound 0.1 µM) 79% | viability, T/C (second compound 1 µM, first compound 0.316 µM) 87.5% | viability, T/C (second compound 1 µM, first compound 1 µM) 83.5% | viability, T/C (second compound 1 µM, first compound 3.16 µM) 86.6% | viability, T/C (second compound 1 µM, first compound 10 µM) 81.3%

Cn1cnc2c(F)c(Nc3ccc(Br)cc3Cl)c(C(=O)NOCCO)cc21 + Cc1nc(NC(=O)N2CCCC2C(N)=O)sc1-c1ccnc(C(C)(C)C(F)(F)F)c1
760 nM: IC50 (second compound 1 µM)
inactive: viability, T/C (second compound 0.0316 µM, first compound 0.00949 µM) 102% | viability, T/C (second compound 0.0316 µM, first compound 0.03 µM) 81.9% | viability, T/C (second compound 0.0316 µM, first compound 0.0949 µM) 85.7% | viability, T/C (second compound 0.0316 µM, first compound 0.3 µM) 75.7% | viability, T/C (second compound 0.0316 µM, first compound 0.949 µM) 76.6% | viability, T/C (second compound 0.0316 µM, first compound 3 µM) 61.8% | viability, T/C (second compound 0.1 µM, first compound 0.00949 µM) 91.7% | viability, T/C (second compound 0.1 µM, first compound 0.03 µM) 78.7% | viability, T/C (second compound 0.1 µM, first compound 0.0949 µM) 93.2% | viability, T/C (second compound 0.1 µM, first compound 0.3 µM) 73.2% | viability, T/C (second compound 0.1 µM, first compound 0.949 µM) 74.6% | viability, T/C (second compound 0.1 µM, first compound 3 µM) 58% | viability, T/C (second compound 0.316 µM, first compound 0.00949 µM) 89.4% | viability, T/C (second compound 0.316 µM, first compound 0.03 µM) 89.8% | viability, T/C (second compound 0.316 µM, first compound 0.0949 µM) 73.4% | viability, T/C (second compound 0.316 µM, first compound 0.3 µM) 72.9% | viability, T/C (second compound 0.316 µM, first compound 0.949 µM) 64.3% | viability, T/C (second compound 0.316 µM, first compound 3 µM) 48.3% | viability, T/C (second compound 1 µM, first compound 0.00949 µM) 79.9% | viability, T/C (second compound 1 µM, first compound 0.03 µM) 89.3% | viability, T/C (second compound 1 µM, first compound 0.0949 µM) 69% | viability, T/C (second compound 1 µM, first compound 0.3 µM) 63.9% | viability, T/C (second compound 1 µM, first compound 0.949 µM) 47% | viability, T/C (second compound 1 µM, first compound 3 µM) 35.9% | viability, T/C (second compound 3.16 µM, first compound 0.00949 µM) 75.8% | viability, T/C (second compound 3.16 µM, first compound 0.03 µM) 73.6% | viability, T/C (second compound 3.16 µM, first compound 0.0949 µM) 66.2% | viability, T/C (second compound 3.16 µM, first compound 0.3 µM) 59.9% | viability, T/C (second compound 3.16 µM, first compound 0.949 µM) 36.4% | viability, T/C (second compound 3.16 µM, first compound 3 µM) 23.8% | viability, T/C (second compound 10 µM, first compound 0.00949 µM) 83.9% | viability, T/C (second compound 10 µM, first compound 0.03 µM) 67% | viability, T/C (second compound 10 µM, first compound 0.0949 µM) 45.6% | viability, T/C (second compound 10 µM, first compound 0.3 µM) 28.2% | viability, T/C (second compound 10 µM, first compound 0.949 µM) 18.7%
active: viability, T/C (second compound 10 µM, first compound 3 µM) 5.93%
2990 nM: IC50 (second compound 0.316 µM)
463 nM: IC50 (second compound 3.16 µM)
77 nM: IC50 (second compound 10 µM)
> 3000 nM: IC50 (second compound 0.0316 µM) | IC50 (second compound 0.1 µM)
